Assays:
[1] = Reduction with ascorbic acid followed by 195Pt NMR; format: physicochemical; details: 1 eq. ascorbic acid, 37 °C
Procedure: The reduction reaction of two representative complexes (1A and 1P) and the release of the indole carboxylic acid ligands was analyzed by HPLC using ascorbic acid as the reductant and 37 °C, pH 7 as physiological conditions (Fig. 4 and S1). The HPLC chromatograms of the reduction reaction of the complexes were compared with the chromatograms of pure samples of the carboxylic acid ligands. […] After 3 h incubation with 10 eq. of ascorbic acid 75% of 1P and 50% of 1A was reduced. […] We further studied the nature of the Pt(II) species produced upon the reduction of 1P and 1A by ^195Pt NMR. […] Unfortunately, monitoring the reduction reaction of the symetrically (2A and 2P) and unsymmetrically (3A–5A and 3P–5P) substituted dicarboxylato complexes was hampered by the poor solubility of the complexes in water and most organic solvents except DMF and DMSO. For the same reason the reduction potentials could not be determined by cyclic voltammetry. […]
Compounds 1A and 1P (10 mM) were incubated at 37 °C, respectively, in the presence of 10 mM ascorbic acid in 12 mM HEPES buffer at pH 7. […] The ^195Pt NMR spectra were recorded by inserting a tube with D2O into the NMR tube.

[2] = test system: panel of human tumor cell lines (BxPC3, HCT-15, MCF-7, A431, A549, A375); test: MTT cytotoxicity, mean over panel of human tumor cell lines; format: cell-based; details: mean over the six cell lines of Table 1, 72 h
Procedure: The cytotoxic activity of the complexes and of the uncoordinated ligands was evaluated by the MTT test on a panel of human tumor cell lines containing examples of pancreatic (BxPC3), colorectal (HCT-15), breast (MCF-7), cervical (A431), and lung (A549) cancers as well as of melanoma (A375). For comparison purposes, the cytotoxicity of cisplatin was evaluated under the same experimental conditions.
The growth inhibitory effect toward tumor cells was evaluated by means of the MTT assay. Briefly, (3–8) × 10^3 cells/well, dependent upon the growth characteristics of the cell line, were seeded in 96-well microplates in growth medium (100 μL). After 24 h, the medium was removed and replaced with fresh medium containing the compound to be studied at the appropriate concentration. Triplicate cultures were established for each treatment. After 24, 48, or 72 h, each well was treated with 10 μL of a 5 mg/mL MTT saline solution and, after 5 h of incubation, 100 μL of a sodium dodecylsulfate (SDS) solution in 0.01 M HCl was added. After an overnight incubation, cell growth inhibition was detected by measuring the absorbance of each well at 570 nm using a Bio-Rad 680 microplate reader. The mean absorbance for each drug dose was expressed as a percentage of the control, untreated well absorbance and plotted vs drug concentration. The IC50 values, the drug concentrations that decrease the mean absorbance at 570 nm to 50% of that of untreated control wells, were calculated from the dose–response curves with the four-parameter logistic model (4PL). The final value is the mean ± S.D. of at least three independent experiments performed in triplicate.

| SMILES | time to complete reduction [1] [h] | IC50 [2] [nM] |
| --- | --- | --- |
| [NH2][Pt]([NH2])([OH])([Cl])([Cl])[O]C(=O)Cc1c[nH]c2ccccc12 [Complex 1A] | 30 | – |
| [NH2][Pt]([NH2])([OH])([Cl])([Cl])[O]C(=O)CCc1c[nH]c2ccccc12 [Complex 1P, cis,cis,trans-[Pt(NH3)2Cl2(IPA)(OH)]] | 24 | ~2500 |

— paper PMC4941645, “Oxidative Stress Induced by Pt(IV) Pro-drugs Based on the Cisplatin Scaffold and Indole Carboxylic Acids in Axial Position” (Scientific Reports, 2016)
